From patent publication US4004028A, “Phenoxypropanolamines” (SmithKline Corporation, priority 1975, dated 1977) come the findings set out here.

Assay [1] relates to guinea pig tracheal chain preparations. The experiment in a line: effect on spontaneous tone of guinea pig tracheal chain (ring) preparations, β-stimulant direct relaxant effect on airway smooth muscle. Format: cell-based. As to conditions: for absolute separation ratio: atrial ED25 versus tracheal ED50, in vitro guinea pig preparations. From the text:
(§1) Two in vitro test systems used for determining selective β-stimulant activity are: (1) effect on spontaneous tone of guinea pig tracheal chain preparations as a measure of β-stimulant (direct relaxant) effect on airway smooth muscle, and (2) effect on rate of spontaneously beating right atria of the guinea pig as a measure of β-stimulant effect on cardiac muscle.

Assay [2] relates to guinea pig right atria. The experiment in a line: effect on rate of spontaneously beating right atria of the guinea pig, β-stimulant effect on cardiac muscle. It is filed as cell-based. As to conditions: Cavia porcellus, in vitro, read-out: ED25, increasing the rate of contraction of guinea pig right atria.
Text: as §1

Each structure is given as a SMILES string. Converted amounts (≈) assume the structure as drawn.

In the case of `CC(C)NCC(O)c1ccc(O)c(O)c1` (stereo not drawn) [d, l-isoproterenol, reference compound], the absolute separation ratio in assay [1] is on record as 0.5.
Consider `CC(C)(C)NCC(O)COc1ccc(O)c(NS(C)(=O)=O)c1` (centres unmarked) [3-(4-hydroxy-3-methanesulfonamidophenoxy)-1-(tert-butylamino)-2-propanol], for which the EC25 in assay [2] is 0.409 µg/mL (≈ 1.23 µM). In assay [1] (Cavia porcellus, in vitro, guinea pig tracheal ring preparation, read-out: ED50, relaxes the spontaneous tone of guinea pig tracheal ring preparation), the EC50 was found to be 0.00219 µg/mL (≈ 0.00659 µM). For the same molecule, in assay [1], the absolute separation ratio came to 186. Also, the “fold improvement of absolute separation ratio compared to d, l-isoproterenol” value in assay [1] (relative to d, l-isoproterenol (absolute separation ratio = 0.5)) was found to be 372 fold.
